Data as given in US11440906B2, “Biguanide derivatives and their rearrangement products for use in the treatment of cancer” (CENTRE NATIONAL DE LA RECHERCHE SCIENTIFIQUE, priority 2017, dated 2022).
Where two headings read alike, the source gives them in different places.

Test system: A375 Sensitive cells
Assay: Viability test, trypan blue exclusion, A375 Sensitive cells
Type: cell-based, human
Conditions: Homo sapiens, A-375, viable cells as percentage of DMSO control
Text: Different melanoma cell lines were purchased from the American Tissue Culture Collection: A375 and WM9 cells are mutated on B-Raf, CDKN2A and PTEN proteins; SKmel28 cells are mutated on B-Raf and P53 proteins; 1205Lu cells are mutated on B-Raf and PTEN proteins; G-361 cells are mutated on B-Raf and CDKN2A proteins; C8161 cells are mutated on B-Raf and K-Ras proteins; WM3912 cells are mutated on B-Raf and CDKN2A proteins; MeWo cells are mutated on P53 and CDKN2A proteins; WM3918 presents no mutations on characteristic proteins.
For trypan blue staining, […] of cells (melanoma and normal human cells) were aseptically transferred to a 1.5 mL clear Eppendorf tube and incubated for 3 min at room temperature with an equal volume of 0.4% trypan blue solution. Viable cells were counted and the results are expressed as the percentage of the value of control cells. All the experiments are performed 3 times in triplicate.
A375 Sensitive cells were treated with different concentrations of the synthesized molecules (5.0 μM or 10 μM) for different times (24 hr or 48 hr) or with DMSO (Control) for 12 or 48 hr. At the end of the stimulation, viable cells were counted using the trypan blue dye exclusion method. The results are normalized as percentages compare to the control.
A375 Sensitive cells were treated with 5 μM of CRO15 for different times (2 hr, 4 hr, 6 hr, 8 hr, 12 hr, 24 hr or 48 hr) or with 5 μM of PLX4032 (B-Raf inhibitor) for 48 hr or with DMSO (Control) for 48 hr. At the end of stimulation, viable cells were counted using the trypan blue dye exclusion method. The results are normalized as percentages compare to the control and data means±SEM of three independent experiments performed in triplicate *p<0.05; **p<0.01; ***p<0.001.
A375 Sensitive cells were treated with different concentrations of CRO15 (0.5 μM, 2.5 μM, 5.0 μM, 7.5 μM, 50 μM) for 48 hr or with 5 μM of PLX4032 (B-Raf inhibitor) for 48 hr or with DMSO (Control) for 48 hr. At the end of the stimulation, viable cells were counted using the trypan blue dye exclusion method. The results are normalized as percentages compare to the control and data means±SEM of three independent experiments performed in triplicate *p<0.05; **p<0.01; ***p<0.001.
A375 sensitive and resistant melanoma cells were treated with 5 μM of CRO15 for 48 hr or with 5 μM of PLX4032 for 48 hr or with DMSO (Control). At 48 hours, viable cells were counted using the trypan blue dye exclusion method. The results are normalized as percentages compare to the control and data means±SEM of three independent experiments performed in triplicate *p<0.05; **p<0.01; ***p<0.001.

[1] = 24 h, read-out: Viab A375 5 μM/ 24 h
[2] = 48 h, read-out: Viab A375 5 μM/ 48 h
[3] = 24 h, read-out: Viab A375 10 μM/ 24 h
[4] = 48 h, read-out: Viab A375 10 μM/ 48 h

Compound `CSc1ccccc1Nc1nc(N)nc(C(Cl)(Cl)Cl)n1` [MTF 316, N2-(2-(methylthio)phenyl)-6-(trichloromethyl)-1,3,5-triazine-2,4-diamine] has a viability at 5 µM [1] of 124%, a viability at 5 µM [2] of 69.6% and a viability at 10 µM [3] of 104%. The viability at 10 µM [4] was 48.2%.
In the case of `CSc1ccccc1Nc1nc(N)nc(C(Cl)Cl)n1` [MTF 317, 6-(dichloromethyl)-N2-(2-(methylthio)phenyl)-1,3,5-triazine-2,4-diamine], the viability at 5 µM [1] was 106%, the viability at 5 µM [2] was 58.7% and the viability at 10 µM [3] was 109%. The viability at 10 µM [4] was 70%.
`COc1cccc(-c2nc(N)nc(Nc3ccccc3SSc3ccccc3Nc3nc(N)nc(-c4cccc(OC)c4)n3)n2)c1` [MTF 318] gave a viability at 5 µM [1] of 74.1%, a viability at 5 µM [2] of 21.6% and a viability at 10 µM [3] of 20.5%. The viability at 10 µM [4] was 6.3%.
`Nc1nc(Nc2ccccc2SSc2ccccc2Nc2nc(N)nc(-c3cccc(F)c3)n2)nc(-c2cccc(F)c2)n1` [MTF 320] gave a viability at 5 µM [1] of 18.3%, a viability at 5 µM [2] of 11.5% and a viability at 10 µM [3] of 10.8%. For the same compound, the viability at 10 µM [4] was 8.5%.
With `Nc1nc(Nc2ccccc2SSc2ccccc2Nc2nc(N)nc(-c3ccccn3)n2)nc(-c2ccccn2)n1` [MTF 321, N2,N2′-(disulfanediylbis(2,1-phenylene))bis(6-(pyridin-2-yl)-1,3,5-triazine-2,4-diamine)] the viability at 5 µM [1] was 59.7%, the viability at 5 µM [2] was 34.5% and the viability at 10 µM [3] was 53.8%. For the same compound, the viability at 10 µM [4] was 32.1%.
In the case of `Nc1nc(Nc2ccccc2SSc2ccccc2Nc2nc(N)nc(-c3cccc(Cl)c3)n2)nc(-c2cccc(Cl)c2)n1` [MTF 322, N2,N2′-(disulfanediylbis(2,1-phenylene))bis(6-(3-chlorophenyl)-1,3,5-triazine-2,4-diamine)], the viability at 5 µM [1] was 57.4%, the viability at 5 µM [2] was 12.1% and the viability at 10 µM [3] was 26.9%. The viability at 10 µM [4] was 5.7%.
Work on `Nc1nc(Nc2ccccc2SSc2ccccc2Nc2nc(N)nc(-c3cccc(Br)c3)n2)nc(-c2cccc(Br)c2)n1` [MTF 323, N2,N2′-(disulfanediylbis(2,1-phenylene))bis(6-(3-bromophenyl)-1,3,5-triazine-2,4-diamine)] yielded a viability at 5 µM [1] of 34.6%, a viability at 5 µM [2] of 23.5% and a viability at 10 µM [3] of 47.4%. It also gave a viability at 10 µM [4] of 8.3%.
`COc1ccc(-c2nc(N)nc(Nc3ccccc3SSc3ccccc3Nc3nc(N)nc(-c4ccc(OC)cc4)n3)n2)cc1` [MTF 324, N2,N2′-(disulfanediylbis(2,1-phenylene))bis(6-(4-methoxyphenyl)-1,3,5-triazine-2,4-diamine)] was tested, and the viability at 5 µM [1] was 44.1%, the viability at 5 µM [2] was 13.3% and the viability at 10 µM [3] was 12.9%. The viability at 10 µM [4] was 8.2%.
For `N#Cc1cccc(-c2nc(N)nc(Nc3ccccc3SSc3ccccc3Nc3nc(N)nc(-c4cccc(C#N)c4)n3)n2)c1` [MTF 325, 3,3′-(((disulfanediylbis(2,1-phenylene))bis(azanediyl))bis(6-amino-1,3,5-triazine-4,2-diyl))dibenzonitrile], the viability at 5 µM [1] was 58.1%, the viability at 5 µM [2] was 30.9% and the viability at 10 µM [3] was 71%. For the same compound, the viability at 10 µM [4] was 29.7%.
Work on `Nc1nc(Nc2ccccc2SSc2ccccc2Nc2nc(N)nc(-c3ccccc3)n2)nc(-c2ccccc2)n1` [MTF 326, N2,N2′-(disulfanediylbis(2,1-phenylene))bis(6-phenyl-1,3,5-triazine-2,4-diamine)] yielded a viability at 5 µM [1] of 27.4%, a viability at 5 µM [2] of 27.9% and a viability at 10 µM [3] of 12.9%. The viability at 10 µM [4] was 6.7%.
For `Nc1nc(Nc2ccccc2SSc2ccccc2Nc2nc(N)nc(-c3ccc(Cl)cc3)n2)nc(-c2ccc(Cl)cc2)n1` [MTF 327, N2,N2′-(disulfanediylbis(2,1-phenylene))bis(6-(4-chlorophenyl)-1,3,5-triazine-2,4-diamine)], the viability at 5 µM [1] was 19.4%, the viability at 5 µM [2] was 14.5% and the viability at 10 µM [3] was 23.7%. It also gave a viability at 10 µM [4] of 14.5%.
With `Nc1nc(Nc2ccccc2SSc2ccccc2Nc2nc(N)nc(-c3ccc(I)cc3)n2)nc(-c2ccc(I)cc2)n1` [MTF 328, N2,N2′-(disulfanediylbis(2,1-phenylene))bis(6-(4-iodophenyl)-1,3,5-triazine-2,4-diamine)] the viability at 5 µM [1] was 50%, the viability at 5 µM [2] was 9.4% and the viability at 10 µM [3] was 27.8%. It also gave a viability at 10 µM [4] of 3.4%.
Compound `Nc1nc(Nc2ccccc2SSc2ccccc2Nc2nc(N)nc(-c3ccncc3)n2)nc(-c2ccncc2)n1` [MTF 329, N2,N2′-(disulfanediylbis(2,1-phenylene))bis(6-(pyridin-4-yl)-1,3,5-triazine-2,4-diamine)] has a viability at 5 µM [1] of 96.2%, a viability at 5 µM [2] of 69.7% and a viability at 10 µM [3] of 74.2%. For the same compound, the viability at 10 µM [4] was 22.5%.
`Nc1nc(Nc2ccccc2SSc2ccccc2Nc2nc(N)nc(-c3cccnc3)n2)nc(-c2cccnc2)n1` [MTF 330, N2,N2′-(disulfanediylbis(2,1-phenylene))bis(6-(pyridin-3-yl)-1,3,5-triazine-2,4-diamine)] was tested, and the viability at 5 µM [1] was 123%, the viability at 5 µM [2] was 73.9% and the viability at 10 µM [3] was 60.1%. It also gave a viability at 10 µM [4] of 41.6%.
Work on `Nc1nc(Nc2ccccc2O)nc(-c2cccc(Br)c2)n1` [MTF 331, 2-((4-amino-6-(3-bromophenyl)-1,3,5-triazin-2-yl)amino)phenol] yielded a viability at 5 µM [1] of 104%, a viability at 5 µM [2] of 82.9% and a viability at 10 µM [3] of 151%. The viability at 10 µM [4] was 77.4%.
`Nc1nc(Nc2ccccc2O)nc(-c2cccc(Cl)c2)n1` [MTF 332, 2-((4-amino-6-(3-chlorophenyl)-1,3,5-triazin-2-yl)amino)phenol] showed a viability at 5 µM [1] of 122%, a viability at 5 µM [2] of 87.6% and a viability at 10 µM [3] of 104%. The viability at 10 µM [4] was 65.4%.
Compound `Nc1nc(Cc2ccccc2)nc(Nc2ccccc2SSc2ccccc2Nc2nc(N)nc(Cc3ccccc3)n2)n1` [MTF 333] has a viability at 5 µM [1] of 94.9%, a viability at 5 µM [2] of 35.4% and a viability at 10 µM [3] of 28.7%. For the same compound, the viability at 10 µM [4] was 24.1%.
`COc1cccc(C(=N)NC(=N)Nc2nc3ccccc3s2)c1` [MTF 342, N—(N-(benzo[d]thiazol-2-yl)carbamimidoyl)-3-methoxybenzimidamide] showed a viability at 5 µM [1] of 48.6%, a viability at 5 µM [2] of 8.6% and a viability at 10 µM [3] of 32.2%. For the same compound, the viability at 10 µM [4] was 8.6%.
Work on `N=C(NC(=N)c1cccc(C(F)(F)F)c1)Nc1nc2ccccc2s1` [MTF 343, N—(N-(benzo[d]thiazol-2-yl)carbamimidoyl)-3-(trifluoromethyl)benzimidamide] yielded a viability at 5 µM [1] of 67.7%, a viability at 5 µM [2] of 52.9% and a viability at 10 µM [3] of 34.8%. It also gave a viability at 10 µM [4] of 24.1%.
With `CCOc1cccc(C(=N)NC(=N)Nc2nc3ccccc3s2)c1` [MTF 344, N—(N-(benzo[d]thiazol-2-yl)carbamimidoyl)-3-ethoxybenzimidamide] the viability at 5 µM [1] was 84.3%, the viability at 5 µM [2] was 26.1% and the viability at 10 µM [3] was 38.7%. It also gave a viability at 10 µM [4] of 26.1%.
With `N=C(NC(=N)c1cnccn1)Nc1nc2ccccc2s1` [MTF 345, N—(N-(benzo[d]thiazol-2-yl)carbamimidoyl)pyrazine-2-carboximidamide] the viability at 5 µM [1] was 25.9%, the viability at 5 µM [2] was 1.8% and the viability at 10 µM [3] was 17.1%. It also gave a viability at 10 µM [4] of 1%.
`N=C(NC(=N)c1cccc(F)c1)Nc1nc2ccccc2s1` [MTF 346, N—(N-(benzo[d]thiazol-2-yl)carbamimidoyl)-3-fluorobenzimidamide] showed a viability at 5 µM [1] of 66.9%, a viability at 5 µM [2] of 10.6% and a viability at 10 µM [3] of 43.2%. It also gave a viability at 10 µM [4] of 12.9%.
Compound `N#Cc1cccc(C(=N)NC(=N)Nc2nc3ccccc3s2)c1` [MTF 347, N—(N-(benzo[d]thiazol-2-yl)carbamimidoyl)-3-cyanobenzimidamide] has a viability at 5 µM [1] of 26.9%, a viability at 5 µM [2] of 6.6% and a viability at 10 µM [3] of 27.6%. The viability at 10 µM [4] was 6.8%.
Work on `Nc1nc(Nc2ccccc2SSc2ccccc2Nc2nc(N)nc(-c3cnccn3)n2)nc(-c2cnccn2)n1` [MTF 348, N2,N2′-(disulfanediylbis(2,1-phenylene))bis(6-(pyrazin-2-yl)-1,3,5-triazine-2,4-diamine)] yielded a viability at 5 µM [1] of 102%, a viability at 5 µM [2] of 79.6% and a viability at 10 µM [3] of 110%. For the same compound, the viability at 10 µM [4] was 35.8%.
